As usually defined, the Vd is the apparent volume that relates the amount in the body to the concentration in plasma or blood.

SMILES strings stand for the structures. Where a SMILES comes first, the peptide text is derived from it. Bridges are numbered along the chain shown (N, C = ends). [ ]: non-standard residue; d: D form. The star is where a group is joined. X1 = CC[C@H](C)CCCCC(=O)*; Dab = NCC[C@H](N)C(=O)O

Consider 1 compound from PMC8645997, “Population Pharmacokinetics of Polymyxin B in Obese Patients for Resistant Gram-Negative Infections” (Frontiers in Pharmacology, 2021).

A short description of series [1]: Population PK modeling of polymyxin B plasma concentrations in obese patients (two-compartment model, Phoenix NLME). The class given is in vivo, human. The procedure:
This retrospective observational study was performed in the First Affiliated Hospital of Zhengzhou University between April 2018 and March 2021. The inclusion criteria for subjects were as follows: 1) patients ≥18 years old; 2) body mass index (BMI) ≥ 30; 3) patients had received intravenous polymyxin B (sulfate; polymyxin B for injection, Shanghai First Biochemical Pharmaceutical Co., Ltd.) for MDR Gram-negative infections; 4) blood sampling at steady state for therapeutic drug monitoring (TDM) was available. Subjects were excluded if 1) patients with continuous renal replacement therapy (CRRT) or extracorporeal membrane oxygenation (ECMO); 2) concentrations were below the lower limit of quantitation. The study protocols were approved by Zhengzhou University Medical Research and Ethics Committee (2021-KY-0441).
Polymyxin B was given to all patients empirically with a 100–200 mg loading dose and a 50–100 mg maintenance dose twice daily. The routine infusion time was at least 1 hour. Polymyxin B treatment, including dosage, infusion time, and treatment course, was determined by their medical teams. Sampling procedures included the following two categories.
From April 2018 to May 2019, 4-7 blood samples (mainly C0h, C1h, C1.5h, C2h, C4h, C6h, and C8h) were collected on day 4 to calculate the area under the concentration across 12 h at steady state (AUCss,12h). From June 2019 to March 2021, according to our previous study, a 2-point model using the limited sampling strategy was a practical approach to estimating polymyxin B AUCss,12h. Therefore, two blood samples (C0h and C2h) were collected. The infusion time was 1 hour ([Wang et al., 2020c]).
Blood samples were immediately centrifuged at 3,500 × g for 10 min. The supernatant was collected and then stored at −80°C until analysis. Polymyxin B concentrations (i.e., the polymyxin B1 concentration plus the polymyxin B2 concentration) were analyzed using a validated high-performance liquid chromatography-mass spectrometry method published by our laboratory ([Wang et al., 2020b]). As previously reported, the assay was linear over 0.2–10.0 μg/ml for polymyxin B1 and 0.05–2.5 μg/ml for polymyxin B2. The intra- and inter-batch assay precision (RSD) ranged from 0 to 13.93% for quality control samples, and their corresponding accuracy (% relative error) ranged from −11.56 to 11.13% ([Wang et al., 2020b]). Since polymyxin B1 and B2 had similar structures, molecular weight, pharmacological activities, and pharmacokinetic characteristics, the plasma concentration of polymyxin B was summed to derive the total polymyxin B1 and B2 concentrations ([Tam et al., 2011]; [Manchandani et al., 2016]).
Population PK modeling process was performed with the Phoenix® NLME software (v7.0, Pharsight, Mountain View, CA, USA). In brief, different PK models (one-, two-, or three-compartment models) were compared using the first-order conditional estimation-extended least-squares (FOCE ELS) method. The inter-individual variability (IIV) of PK parameters was assumed by additive, proportional, or mixed (additive plus proportional) models. The coefficient of variation (CV), the distribution of residuals in diagnostic plots, and the likelihood ratio test (-2 loglikelihood; -2LL) were used to evaluate the model. Following the basic structural modeling step, a stepwise process was used to consider several covariates, including age, TBW, BMI, IBW, ABW, sex, SOFA score, CrCL, adjusted CrCL, ideal CrCL, serum creatinine, and GFR. A drop >6.63 (p = 0.01) of objective function value (OFV; -2LL) for forward addition and an increase of OFV >10.83 (p = 0.001) for backward elimination were the inclusion criteria for covariates. After covariate selection, based on the scatter plot and ΔOFV (a drop of OFV >6.63), the relevant correlation between random effects was also explored.
For model evaluation, the goodness-of-fit (GOF) plots were used to evaluate the reliability of the final model. […]

For series [2] the following is noted: cited from earlier work. The source says:
As a weight-based dosing antibiotic with a narrow therapeutic window, polymyxin B regimen in obese patients is particularly concerning. The present study developed a two-compartment model to describe the population PK profile of polymyxin B in obese patients. […] In terms of V and V2 estimates, the values varied widely between studies ([Avedissian et al., 2019]). Compared with the PK parameters reported by our group and Sandri et al, the typical V value (11.24 L, Table 2) was higher than thos ... || Obesity can cause related pathophysiological changes that could theoretically alter the PK characteristic of drugs, such as increased Vd, altered hepatic metabolism, renal CL, and protein binding. An understanding of how the Vd of a drug changes in obesity is critical because this parameter determines loading-dose selection ([Hanley et al., 2010]). Vd is affected by physicochemical property (lipophilicity or hydrophilicity), plasma protein binding rate, and tissue blood flow ([Al-Dorzi et al., 2014]; [Polso et al., 2014]). Hydrophilic drugs typically have a low Vd, poor tissue penetration, les ...

For series [3] the following is noted: intermediate to high protein binding; ref Sandri et al., 2013; Abodakpi et al., 2015; Avedissian et al., 2019; cited from earlier work. The source says: Obesity can cause related pathophysiological changes that could theoretically alter the PK characteristic of drugs, such as increased Vd, altered hepatic metabolism, renal CL, and protein binding. An understanding of how the Vd of a drug changes in obesity is critical because this parameter determines loading-dose selection ([Hanley et al., 2010]). Vd is affected by physicochemical property (lipophilicity or hydrophilicity), plasma protein binding rate, and tissue blood flow ([Al-Dorzi et al., 2014]; [Polso et al., 2014]). Hydrophilic drugs typically have a low Vd, poor tissue penetration, les ...

For series [4] the following is noted: daily dose ≥250 mg; 151 patients; 95% CI 1.15–16.25, p = 0.03; ref Nelson et al., 2015; cited from earlier work. The procedure: From a toxicology perspective, the use of TBW-based dosing in obese patients can lead to polymyxin B overexposure and risk of acute kidney injury (AKI). In a retrospective study of 151 patients, Nelson et al. discovered that a daily dose ≥250 mg was an independent predictor of nephrotoxicity (OR 4.32, 95% CI 1.15–16.25, p = 0.03) in multivariate analysis ([Nelson et al., 2015]). […] These studies raised an important point abo ...

[5] abbreviates: obese patients, n = 26, iv, steady state.

In the case of `CC[C@H](C)CCCCC(=O)N[C@@H](CCN)C(=O)N[C@H](C(=O)N[C@@H](CCN)C(=O)N[C@H]1CCNC(=O)[C@H]([C@@H](C)O)NC(=O)[C@H](CCN)NC(=O)[C@H](CCN)NC(=O)[C@H](CC(C)C)NC(=O)[C@@H](Cc2ccccc2)NC(=O)[C@H](CCN)NC1=O)[C@@H](C)O` [polymyxin B] (X1-[Dab]T[Dab][Dab][Dab][dF]L[Dab][Dab]T; lactam 4-C), in series [1] (bootstrap, 1,000 samples), the “tvCL, bootstrap median” value amounted to 2.73; the “tvQ, bootstrap median” value stood at 7.71; the “tvV2, bootstrap median” value turned out to be 40.46; the “tvV, bootstrap median” value is recorded as 11.46. Further, the “tvV, typical value of central compartment distribution volume (V), final model estimate” value in series [1] (obese patients (BMI >=30), n = 26, 142 plasma concentrations, iv, steady state) is reported as 11.24 L. In series [1] (setting [5]), the “tvCL, central compartment clearance, final model estimate” value is recorded as 2.86 L/h; the “tvQ, inter-compartmental clearance, final model estimate” value is on record as 7.36; the “tvV2, peripheral compartment distribution volume, final model estimate” value was 39.70 L. The Vd in series [2] (low to intermediate Vd, ref Sandri et al., 2013, Abodakpi et al., 2015, Avedissian et al., 2019) was 6.3 to 47.2 L. For the same compound, the “typical CL value, previous reports” value in series [2] (previous reports, ref Avedissian et al., 2019) is 1.87 to 2.63 L/h. In addition, the “V2 value, reported previously” value in series [2] (ref Sandri et al., 2013, Wang et al., 2020c, 2021) was 10.57 to 11.97 L. Further, the “typical V value, reported previously” value in series [2] (reported by our group and Sandri et al, ref Sandri et al., 2013, Wang et al., 2020c, Wang et al., 2021) was 6.22 to 6.98 L. Also, the protein binding in series [3] is on record as 58–90%. Besides, the “OR of nephrotoxicity (independent predictor, multivariate analysis)” value in series [4] is 4.32.
